Measurements as given in publication PMC8580252, “Parasitic nematode fatty acid- and retinol-binding proteins compromise host immunity by interfering with host lipid signaling pathways” (PLoS Pathogens, 2021).

Biological target: T1, Sc-FAR-2 (Steinernema carpocapsae, UniProt A0A4U5NI02)
T1 construct: gene L596_016036; mature protein (signal peptide removed), N-terminal His6 tag cut off with TEV protease, E. coli BL21-CodonPlus, about 20 kDa family
Experiment: fluorescence titration, one-site fit
Format: binding

T1 sequence (A0A4U5NI02 entry or part of it): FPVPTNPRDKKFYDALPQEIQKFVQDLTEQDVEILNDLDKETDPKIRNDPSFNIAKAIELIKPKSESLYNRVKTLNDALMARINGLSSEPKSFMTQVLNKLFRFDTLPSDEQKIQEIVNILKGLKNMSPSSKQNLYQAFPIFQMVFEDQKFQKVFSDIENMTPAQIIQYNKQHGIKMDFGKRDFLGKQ

SMILES: CN(C)c1cccc2c(S(=O)(=O)NCCCCCCCCCCC(=O)O)cccc12 [DAUDA]
- Kd: 21.8 µM
